# Experiments:
# Tyrosinase mRNA = Tyrosinase mRNA by real time quantitative PCR in NHEM; format: cell-based, human; settings: 6 or 24 hours
# Protocol: (§1) NHEM were cultured with 2-BP for 6 or 24 hours. Tyrosinase mRNA levels were analyzed by real time quantitative PCR. The results shown are the average of three determinations±SE.*p<0.05 vs. DMSO (FIG. 4A). NHEM were incubated with 5 μM 2-BP for 24 hours. Glycosidase digestion treatment by endo H and WB analysis on mature and immature form of tyrosinase were conducted by WB (FIG. 4B).
# tyrosinase [1] = assay: Glycosylation of tyrosinase (endo H digestion and WB) in NHEM; format: cell-based, human; settings: 5 μM, 24 hours
# Protocol: as §1
# tyrosinase [2] = assay: Palmitoylated tyrosinase in NHEM by acyl-RAC and WB; format: cell-based, human; settings: 24 hours, vs. DMSO
# Protocol: (§2) Normal human epidermal melanocytes (NHEM) were incubated with 2-bromopalmitate (2-BP) for 24 hours, and total tyrosinase was determined by Western-blot (WB) using the mouse monoclonal anti-tyrosinase IgG antibody T311 (1:120 dilution). Total tyrosinase protein level was normalized by tubulin. Palmitoylated tyrosinase was evaluated by acyl-RAC and WB. The results shown in FIGS. 2A and 2B, are the average of three determinations SE. *p<0.05 vs. DMSO.
# tyrosinase [3] = assay: Ubiquitination of tyrosinase in NHEM (IP and WB); format: cell-based, human; settings: 5 μM, 24 hours
# Protocol: NHEM were treated with 5 μM 2-BP for 24 hours. Equal protein amounts of cell lysate were used for IP by tyrosinase, and the ubiquitinated (UB) level of tyrosinase was analyzed by WB using anti-UB antibody.
# NHEM = assay: Melanin content in NHEM; format: cell-based, human; settings: 48 hours, various concentrations, vs. DMSO
# Protocol: (§3) NHEM were treated with indicated concentrations of 2-BP for 48 hours. Melanin content (closed bar) and cell number (open bar) were measured. Values are the average of three determinations±SE. *p<0.05 vs. DMSO. Macroscopic views of cell pellet were taken by digital camera (FIG. 3A). Reconstructed human skin models (Asian type) were incubated with 25 μM 2-BP for 17 days. Eumelanin (EM) and pheomelanin (PM) contents were determined and calculated by following formula. EM=PTCA*25, PM=4−AHP*9. Values are the average of three determinations±SE.*p<0.05 vs. DMSO. Macroscopic views of a human skin model after 17 days were taken by digital camera (FIG. 3B).
# tyrosinase [4] = assay: Total tyrosinase protein in NHEM by Western-blot; format: cell-based, human; settings: 24 hours, various concentrations, vs. DMSO, normalized by tubulin
# Protocol: as §2
# [5] = test system: Reconstructed human skin models (Asian type); assay: Melanin content in reconstructed human skin model; format: cell-based; settings: 25 μM, 17 days, vs. DMSO
# Protocol: as §3
# tyrosinase [6] = assay: Degradation of tyrosinase in cycloheximide-treated NHEM (WB); format: cell-based, human; settings: 4 hours
# Protocol: NHEM were treated with 1 μg/ml cycloheximide, protein synthesis inhibitor, and with (▪) or without (⋄) 10 μM 2-BP for 4 hours. Tyrosinase levels were analyzed by WB using the mouse monoclonal anti-tyrosinase IgG antibody T311 (1:120 dilution). The band intensities of tyrosinase were normalized by the band intensities of Glyceraldehyde 3-phosphate dehydrogenase (GAPDH) as internal control for each condition. The results shown are the average of three determinations±SE.*p<0.05 vs. DMSO (FIGS. 5A and 5B).
# NHEM (Asian) = assay: Melanin synthesis in NHEM with PP2 or KA, with or without 2-BP; format: cell-based, human; settings: 120 hours
# Protocol: NHEM (Asian) were incubated for 120 hours in the presence of PP2, with or without 2-BP. […] Mean±S.E. (N=3)*p<0.05, vs. control. Kojic Acid (KA) was used as a positive control.
# [7] = target: T1, Palmitoyl:protein thioesterase (PPT1) (Homo sapiens, UniProt P50897); settings: cited from earlier work; for PPT1 inhibitory activity: result in words
# T1 sequence (P50897 28-306): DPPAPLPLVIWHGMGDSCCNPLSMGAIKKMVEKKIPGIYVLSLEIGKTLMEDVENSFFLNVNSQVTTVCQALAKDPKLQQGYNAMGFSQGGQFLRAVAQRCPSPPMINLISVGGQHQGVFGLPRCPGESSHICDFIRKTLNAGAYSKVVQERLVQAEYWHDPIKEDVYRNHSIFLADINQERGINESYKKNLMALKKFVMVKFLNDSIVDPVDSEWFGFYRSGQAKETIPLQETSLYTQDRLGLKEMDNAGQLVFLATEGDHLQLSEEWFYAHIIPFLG
compound,measurement,setting,value
"CCCCCCCCCCCCCCC(Br)C(=O)O (stereo not drawn) [2-BP, 2-bromopalmitate]",tyrosinase mRNA expression,Tyrosinase mRNA,decrease
same,glycosylation of tyrosinase,tyrosinase [1],no effect
same,amount of palmitoylated tyrosinase,tyrosinase [2],decreased
same,ubiquitination of tyrosinase,tyrosinase [3],no effect
same,melanin content per cell,NHEM,statistically significant increase
same,total amount of tyrosinase protein per cell,tyrosinase [4],statistically significant increase
same,total melanin: eumelanin (EM) and pheomelanin (PM) content of the tissue,[5],statistically significant increase
same,degradation of tyrosinase,tyrosinase [6]; 10 μM with 1 μg/ml cycloheximide,suppresses the degradation of tyrosinase
"O=c1cc(CO)occ1O [Kojic acid, Kojic Acid]",melanin synthesis,NHEM (Asian); 2-BP-treated cells,mildly inhibited melanin synthesis
same,melanin synthesis,NHEM (Asian); cells not treated with 2-BP,mildly inhibited melanin synthesis
C[C@@H]1C[C@@H]([C@H](O)CC2CC(=O)NC(=O)C2)C(=O)[C@@H](C)C1 [cycloheximide],tyrosinase levels,tyrosinase [6]; 1 μg/ml cycloheximide,decreased
AcGDap(Palm)GGR7,PPT1 inhibitory activity,[7],strong PPT1 inhibitors
GGC(Pal) VKIKK [CS8],PPT1 inhibitory activity,[7],comparable inhibitory activity to CS38
NBD-αAGDap(Pal)VKIKK [CS38],inhibitor potency relative to Dap1,"[7]; PPT1 inhibition, compared with Dap1",3 fold
same,IC50,[7]; PPT1 inhibition,2000 nM

# — patent US9283166B2, “Modulation of melanogenesis by modification of tyrosinase by palmitoylation” (ELC Management LLC, priority 2012, dated 2016)
